According to US7179612B2, “Method for detecting a lipoprotein-acute phase protein complex and predicting an increased risk of system failure or mortality” (bioMerieux, Inc., priority 2000, dated 2007):

Legend:
VLDL/CRP complex [1] = target: T1, VLDL/CRP complex (Homo sapiens, UniProt P02741); experiment: Inhibition of VLDL/CRP complex formation (Ca2+-dependent turbidity change); type: biochemical
T1 sequence (P02741 19-224): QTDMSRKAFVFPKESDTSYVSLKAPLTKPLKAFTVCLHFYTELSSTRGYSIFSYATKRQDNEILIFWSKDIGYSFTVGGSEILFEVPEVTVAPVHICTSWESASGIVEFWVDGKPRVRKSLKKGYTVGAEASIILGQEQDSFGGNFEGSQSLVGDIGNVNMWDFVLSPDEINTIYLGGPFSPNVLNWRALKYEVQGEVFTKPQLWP
Source text: It is known that CRP binds directly to PC and that PC competes with lipoproteins for binding to CRP.

VLDL/CRP complex [2] = target: T1, VLDL/CRP complex; experiment: Calcium concentration dependence of formation of the VLDL/CRP complex; type: biochemical; conditions: FIG. 38; read-out: calcium concentration at which complex formation is half maximal
Description: FIG. 38 is a graph depicting the calcium concentration dependence of formation of the VLDL/CRP complex. Complex formation is half maximal at 5.0 mM calcium.

CRP = target: T2, CRP (Homo sapiens, UniProt P02741); experiment: Direct binding of apo(B) to CRP
T2 construct: from tissue; host or cells: patient plasma (calcium precipitate, ammonium sulfate fractionation, Q-Sepharose peak 3)
T2 sequence (P02741 19-224): T1 sequence (P02741 19-224)

Compound | inhibition of complex formation (result in words) (VLDL/CRP complex [1]) | also measured
NCCCCCC(=O)O [EACA] | inhibited | IC50 (VLDL/CRP complex [1]; FIG. 40): 2.1 mM
[Ca+2] [calcium] | – | EC50 (VLDL/CRP complex [2]): 5 mM
NCCOP(=O)(O)O [phosphorylethanolamine] | inhibited | –
apo(B): apo-lipoprotein B, the major protein component of VLDL | – | direct binding to CRP (result in words) (CRP): can bind directly to CRP
phosphotidylcholine | inhibited | –
phosphotidylethanolamine | inhibited | –
